biological target: truncated Polθ protein (Polθ-Hel containing the helicase domain (67-894)) (Homo sapiens (Human), UniProt O75417); assay: Polθ ATPase assay (Biological Assay 1, ADP-Glo luminescence); type: biochemical; conditions: Table B; compounds of Experimental Part B, in vitro; read-out: Polθ ATPase assay IC50
Method in brief: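 Polθ-Hel (0.5 nM) with 500 nM ssDNA oligo in pH 8.8 Tris buffer (5 mM MgCl2, 1 mM DTT) was preincubated with compound 30 min at 23 °C. The reaction ran 60 min after 60 μM ATP was added (stated as the added solution, not final). ADP formed was detected by ADP-Glo luminescence to derive IC50.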

truncated Polθ protein (Polθ-Hel containing the helicase domain (67-894)), sequence (O75417 67-894): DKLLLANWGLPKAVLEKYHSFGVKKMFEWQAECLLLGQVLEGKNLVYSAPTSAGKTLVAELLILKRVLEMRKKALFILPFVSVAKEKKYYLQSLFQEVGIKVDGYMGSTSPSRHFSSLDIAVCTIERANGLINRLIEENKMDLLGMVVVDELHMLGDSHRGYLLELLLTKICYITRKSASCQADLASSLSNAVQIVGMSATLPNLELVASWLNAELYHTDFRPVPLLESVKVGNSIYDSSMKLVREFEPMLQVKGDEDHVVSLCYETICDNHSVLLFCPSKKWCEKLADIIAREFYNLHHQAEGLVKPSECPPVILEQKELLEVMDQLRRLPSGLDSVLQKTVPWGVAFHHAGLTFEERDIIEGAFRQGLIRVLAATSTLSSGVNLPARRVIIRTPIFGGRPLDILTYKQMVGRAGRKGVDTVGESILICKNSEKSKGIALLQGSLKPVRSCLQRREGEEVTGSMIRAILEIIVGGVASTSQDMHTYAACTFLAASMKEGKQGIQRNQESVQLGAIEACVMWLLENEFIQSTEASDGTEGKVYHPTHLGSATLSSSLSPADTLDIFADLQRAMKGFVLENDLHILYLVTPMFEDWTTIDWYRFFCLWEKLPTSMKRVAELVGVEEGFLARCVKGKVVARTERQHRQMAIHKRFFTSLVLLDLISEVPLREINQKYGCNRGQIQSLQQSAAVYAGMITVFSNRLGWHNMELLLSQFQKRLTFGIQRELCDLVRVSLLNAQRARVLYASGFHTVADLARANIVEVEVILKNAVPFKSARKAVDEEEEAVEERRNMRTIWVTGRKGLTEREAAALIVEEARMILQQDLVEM

| SMILES | IC50 [nM] |
| --- | --- |
| COc1cnc(Cl)cc1-c1cc(C)ncc1C(=O)Nc1nc2c(Br)cccc2s1 [Example 99, N-(4-bromo-1,3-benzothiazol-2-yl)-2′-chloro-5′-methoxy-6-methyl-[4,4′-bipyridine]-3-carboxamide] | < 100 |
| COc1cnc(Cl)cc1-c1cc(C)ncc1C(=O)Nc1nc2c(CCC(=O)N(C)C)cccc2s1 [Example 100, 2′-chloro-N-{4-[2-(dimethylcarbamoyl)ethyl]-1,3-benzothiazol-2-yl}-5′-methoxy-6-methyl-[4,4′-bipyridine]-3-carboxamide] | < 100 |
| COc1cnc(Cl)cc1-c1cc(C)ncc1C(=O)Nc1nc2cc(OCC#N)ccc2s1 [Example 101, 2′-chloro-N-[5-(cyanomethoxy)-1,3-benzothiazol-2-yl]-5′-methoxy-6-methyl-[4,4′-bipyridine]-3-carboxamide] | < 100 |
| CNC(=O)C(F)(F)Oc1ccc2sc(NC(=O)c3cnc(C)cc3-c3cc(Cl)ncc3OC)nc2c1 [Example 102, 2′-chloro-N-{5-[difluoro(methylcarbamoyl)Methoxy]-1,3-benzothiazol-2-yl}-5′-methoxy-6-methyl-[4,4′-bipyridine]-3-carboxamide] | < 100 |
| COc1cnc(Cl)cc1-c1cc(C)ncc1C(=O)Nc1nc2cc(Br)ccc2s1 [Example 103, N-(5-bromo-1,3-benzothiazol-2-yl)-2′-chloro-5′-methoxy-6-methyl-[4,4′-bipyridine]-3-carboxamide] | < 100 |
| COc1cnc(Cl)cc1-c1cc(C)ncc1C(=O)Nc1nc2cc(OC(F)(F)C(=O)N(C)C)ccc2s1 [Example 104, 2′-chloro-N-{5-[(dimethylcarbamoyl)difluoromethoxy]-1,3-benzothiazol-2-yl}-5′-methoxy-6-methyl-[4,4′-bipyridine]-3-carboxamide] | < 100 |
| CNC(=O)c1ccc2sc(NC(=O)c3cnc(C)cc3-c3cc(Cl)ncc3OC)nc2c1 [Example 105, 2′-chloro-5′-methoxy-6-methyl-N-[5-(methylcarbamoyl)-1,3-benzothiazol-2-yl]-[4,4′-bipyridine]-3-carboxamide] | < 100 |
| COc1ccc2sc(NC(=O)c3cnc(C)cc3-c3cc(Cl)ncc3OC)nc2c1 [Example 106, 2′-chloro-5′-methoxy-N-(5-methoxy-1,3-benzothiazol-2-yl)-6-methyl-[4,4′-bipyridine]-3-carboxamide] | < 100 |
| COCCNC(=O)c1ccc2sc(NC(=O)c3cnc(C)cc3-c3cc(Cl)ncc3OC)nc2c1 [Example 107, 2′-chloro-5′-methoxy-N-{5-[(2-methoxyethyl)carbamoyl]-1,3-benzothiazol-2-yl}-6-methyl-[4,4′-bipyridine]-3-carboxamide] | < 100 |
| COc1cnc(Cl)cc1-c1cc(C)ncc1C(=O)Nc1nc2c(OCC(=O)N(C)C)ncnc2s1 [Example 108, 2′-chloro-N-{7-[(dimethylcarbamoyl)methoxy]-[1,3]thiazolo[5,4-d]pyrimidin-2-yl}-5′-methoxy-6-methyl-[4,4′-bipyridine]-3-carboxamide] | < 100 |
| COc1cnc(Cl)cc1-c1cc(C)ncc1C(=O)Nc1nc2cc(OCC3CCN(C(C)=O)CC3)ccc2s1 [Example 109, N-{5-[(1-acetylpiperidin-4-yl)methoxy]-1,3-benzothiazol-2-yl}-2′-chloro-5′-methoxy-6-methyl-[4,4′-bipyridine]-3-carboxamide] | < 100 |
| COc1cnc(Cl)cc1-c1cc(C)ncc1C(=O)Nc1nc2cc(OCC(=O)N(C)C)ccc2s1 [Example 110, 2′-chloro-N-{5-[(dimethylcarbamoyl)methoxy]-1,3-benzothiazol-2-yl}-5′-methoxy-6-methyl-[4,4′-bipyridine]-3-carboxamide] | < 100 |
| COc1cnc(Cl)cc1-c1cc(C)ncc1C(=O)Nc1nc2cc(OCCN3CCOCC3)ccc2s1 [Example 111, 2′-chloro-5′-methoxy-6-methyl-N-{5-[2-(morpholin-4-yl)ethoxy]-1,3-benzothiazol-2-yl}-[4,4′-bipyridine]-3-carboxamide] | < 100 |
| COc1cnc(Cl)cc1-c1cc(C)ncc1C(=O)Nc1nc2cc(OC(C)C)ccc2s1 [Example 112, 2′-chloro-5′-methoxy-6-methyl-N-[5-(propan-2-yloxy)-1,3-benzothiazol-2-yl]-[4,4′-bipyridine]-3-carboxamide] | < 100 |
| COc1cnc(Cl)cc1-c1cc(C)ncc1C(=O)Nc1nc2cc(OCC3CS(=O)(=O)C3)ccc2s1 [Example 113, 2′-chloro-N-{5-[(1,1-dioxo-1-λ6-thietan-3-yl)methoxy]-1,3-benzothiazol-2-yl}-5′-methoxy-6-methyl-[4,4′-bipyridine]-3-carboxamide] | 100 to 1000 |
| CCOc1ccc2sc(NC(=O)c3cnc(C)cc3-c3cc(Cl)ncc3OC)nc2c1 [Example 114, 2′-chloro-N-(5-ethoxy-1,3-benzothiazol-2-yl)-5′-methoxy-6-methyl-[4,4′-bipyridine]-3-carboxamide] | 100 to 1000 |

| SMILES | IC50 [nM] |
| --- | --- |
| COc1cnc(Cl)cc1-c1cc(C)ncc1C(=O)Nc1nc2cc(OCCOC(F)(F)F)ccc2s1 [Example 115, 2′-chloro-5′-methoxy-6-methyl-N-{5-[2-(trifluoromethoxy)ethoxy]-1,3-benzothiazol-2-yl}-[4,4′-bipyridine]-3-carboxamide] | 100 to 1000 |
| COc1cnc(C(F)(F)F)cc1-c1cc(CC(=O)N(C)C)ncc1C(=O)Nc1nc2cncnc2s1 [Example 116, 6-[(dimethylcarbamoyl)methyl]-5′-methoxy-N-{[1,3]thiazolo[5,4d]pyrimidin-2-yl}-2′-(trifluoromethyl)-[4,4′-bipyridine]-3-carboxamide] | < 100 |
| COc1cnc(C)cc1-c1cc(C)ncc1C(=O)Nc1nc2cnc(N3CCC(O)CC3)nc2s1 [Example 117, N-[5-(4-hydroxypiperidin-1-yl)-[1,3]thiazolo[5,4-d]pyrimidin-2-yl]-5′-methoxy-2′,6-dimethyl-[4,4′-bipyridine]-3-carboxamide] | < 100 |
| COc1cnc(Cl)cc1-c1cc(C)ncc1C(=O)Nc1nc2cnc(NCCCCC(=O)O)cc2s1 [Example 119, 5-[(2-{2′-chloro-5′-methoxy-6-methyl-[4,4′-bipyridine]-3-amido}-[1,3]thiazolo[4,5-c]pyridin-6-yl)amino]pentanoic acid] | < 100 |
| COc1cnc(Cl)cc1-c1cc(C)ncc1C(=O)Nc1nc2ccc(NCCCCC(=O)O)nc2s1 [Example 120, 5-[(2-{2′-chloro-5′-methoxy-6-methyl-[4,4′-bipyridine]-3-amido}-[1,3]thiazolo[5,4-b]pyridin-5-yl)amino]pentanoic acid] | < 100 |
| COc1cnc(Cl)cc1-c1cc(C)ncc1C(=O)Nc1nc2cc(OCc3nn[nH]n3)ccc2s1 [Example 121, 2′-chloro-5′-methoxy-6-methyl-N-{5-[(2H-1,2,3,4-tetrazol-5-yl)methoxy]-1,3-benzothiazol-2-yl}-[4,4′-bipyridine]-3-carboxamide] | < 100 |
| COc1cnc(Cl)cc1-c1cc(C)ncc1C(=O)Nc1nc2cc(O)ccc2s1 [Example 122, 2′-chloro-N-(5-hydroxy-1,3-benzothiazol-2-yl)-5′-methoxy-6-methyl-[4,4′-bipyridine]-3-carboxamide] | < 100 |
| COc1cnc(Cl)cc1-c1cc(C)ncc1C(=O)Nc1nc2cc(OCCOC(C)=O)ccc2s1 [Example 123, 2-[(2-{2′-chloro-5'-methoxy-6-methyl-[4,4′-bipyridine]-3-amido}-1,3-benzothiazol-5-yl)oxy]ethyl acetate] | < 100 |
| COc1cnc(Cl)cc1-c1cc(C)ncc1C(=O)Nc1nc2cc(OCCO)ccc2s1 [Example 124, 2′-chloro-N-[5-(2-hydroxyethoxy)-1,3-benzothiazol-2-yl]-5′-methoxy-6-methyl-[4,4′-bipyridine]-3-carboxamide] | < 100 |
| COc1cnc(Cl)cc1-c1cc(C)ncc1C(=O)Nc1nc2c(OCC#N)ncnc2s1 [Example 126, 2′-chloro-N-[7-(cyanomethoxy)-[1,3]thiazolo[5,4-d]pyrimidin-2-yl]-5′-methoxy-6-methyl-[4,4′-bipyridine]-3-carboxamide] | < 100 |
| COc1cnc(Cl)cc1-c1cc(C)ncc1C(=O)Nc1nc2c(OCC(N)=O)ncnc2s1 [Example 127, N-[7-(carbamoylmethoxy)-[1,3]thiazolo[5,4-d]pyrimidin-2-yl]-2′-chloro-5′-methoxy-6-methyl-[4.4′-bipyridine]-3-carboxamide] | < 100 |
| COc1cnc(Cl)cc1-c1cc(C)ncc1C(=O)Nc1nc2ccc(C3COCCN3)cc2s1 (centres unmarked) [Example 128, 2′-chloro-5′-methoxy-6-methyl-N-[6-(morpholin-3-yl)-1,3-benzothiazol-2-yl]-[4,4′-bipyridine]-3-carboxamide] | < 100 |
| COc1cnc(Cl)cc1-c1cc(C)ncc1C(=O)Nc1nc2cnc(NCC(C)(C)O)cc2s1 [Example 130, 2′-chloro-N-{6-[(2-hydroxy-2-methylpropyl)amino]-[1,3]thiazolo[4,5-c]pyridin-2-yl}-5′-methoxy-6-methyl-[4,4′-bipyridine]-3 carboxamide] | < 100 |
| COc1cnc(Cl)cc1-c1cc(C)ncc1C(=O)Nc1nc2cnc(N3CC(C)(OC)C3)cc2s1 [Example 131, 2′-chloro-5′-methoxy-N-[6-(3-methoxy-3-methylazetidin-1-yl)-[1,3]thiazolo[4,5-c]pyridin-2-yl]-6-methyl-[4,4′-bipyridine]-3-carboxamide] | < 100 |
| COc1cnc(Cl)cc1-c1cc(C)ncc1C(=O)Nc1nc2c(C)nc(N3CCC(O)CC3)nc2s1 [Example 132, 2′-chloro-N-[5-(4-hydroxypiperidin-1-yl)-7-methyl-[1,3]thiazolo[5,4-d]pyrimidin-2-yl]-5′-methoxy-6-methyl-[4,4′-bipyridine]-3-carboxamide] | < 100 |
| COc1cnc(Cl)cc1-c1cc(C)ncc1C(=O)Nc1nc2cnc(OCC(C)(C)O)nc2s1 [Example 133, 2′-chloro-N-[5-(2-hydroxy-2-methylpropoxy)-[1,3]thiazolo[5,4-d]pyrimidin-2-yl]-5′-methoxy-6-methyl-[4,4′-bipyridine]-3-carboxamide] | < 100 |
